Laboratory results taken from US8658620B2, “Pharmaceutical composition, use of 2-iminopyrrolidine derivative for production of pharmaceutical composition, and kit for treatment or amelioration of heart diseases” (Eisai R&D Management Co., Ltd., priority 2008, dated 2014).
Where a name gives a salt, the structure may show the parent alone.

Tested on: guinea pig photosensitization-induced thrombus model
Assay: guinea pig photosensitization-induced thrombus model (rose bengal / green light, femoral artery blood flow time)
Assay type: in vivo
Settings: male Hartley guinea pigs, oral, about 115-120 min after administration, vehicle control 6.72 minutes
Description: At least one compound selected from the group consisting of the formulas (I) to (VII) or a pharmacologically acceptable salt thereof and at least one other compound (B) selected from group B are administered orally, single or in mixture, to male Hartley guinea pigs. As a vehicle, 0.5% methylcellulose solution or an aqueous solution containing dimethylsulfoxide and Tween 20 is used. (These compounds may be administered repeatedly.)
At a specific time after the oral administration, guinea pigs are anesthetized by intraperitoneal administration of sodium pentobarbital. Under anesthesia, the cervical vein is exposed and a polyethylene tube is cannulated thereinto for administering rose bengal. The femoral artery is exposed and fitted with a probe for blood flow measurement. A site upstream of the probe is irradiated with green light (wavelength 540 nm, 500,000 lux). […] Time to complete cessation of blood flow is measured.
A hydrobromide of a compound represented by the formula (I) (hereinafter, referred to as “the compound of Example 1”) and aspirin were dissolved with DMSO to give concentrations of 200 mg/mL and 1000 mg/mL, respectively. […] Blood flow time from the beginning of rose bengal administration to the complete cessation of blood flow was measured to evaluate antithrombotic effects.

| Structure (SMILES) | blood flow time from the beginning of rose bengal administration to the complete cessation of blood flow (compound of Example 1 alone 30 mg/kg) | blood flow time from the beginning of rose bengal administration to the complete cessation of blood flow (aspirin alone 100 mg/kg) |
| --- | --- | --- |
| CCOc1cc2c(c(F)c1OCC)C(=N)N(CC(=O)c1cc(N3CCOCC3)c(OC)c(C(C)(C)C)c1)C2 [Example 1, 1-(3-tert-Butyl-4-methoxy-5-morpholino-phenyl)-2-(5,6-diethoxy-7-fluoro-1-imino-1,3-dihydro-isoindol-2-yl)-ethanone; hydrobromide] | 10.77 min |  |
| CC(=O)Oc1ccccc1C(=O)O [aspirin] |  | 11.30 min |
